The subject of series [1] is CEM-MTX^R5P cells. In words: Antifolate growth inhibition assay (XTT), MTX-resistant subline. Particulars: for IC50: Homo sapiens, 72 h, read-out: IC50 growth inhibition. Format: cell-based, human. As for the experimental part: (§1) Tissue Culture: The human T-cell lymphocytic leukemia lines CCRF-CEM and Molt-4 as well as their antifolate-resistant sublines CEM-MTX^R5P, CEM-MTX^R10, CEM-7OH MTX and Molt-4-7OH MTX were maintained in RPMI-1640 medium (GIBCO) containing 2.3 μM folic acid supplemented with 10% fetal bovine serum, 2 mM glutamine, 100 units/ml penicillin G and 100 μg/ml streptomycin sulfate (Biological Industries, Beth-Haemek, Israel). The MTX-resistant sublines MTX^R5P and MTX^R10 were established by exposure of parental CCRF-CEM cells to 6 cycles each of 24 hr pulse of 5 or 10 μM MTX, respectively (Sigma) as follows: after an initial 24 hr pulse exposure of parental CCRF-CEM cells to 5 or 10 μM MTX at 37° C., cells were washed once with drug-free growth medium, adjusted to 3×10^5 cells/ml and allowed to grow for 1-2 weeks. Thereafter, a maintenance treatment of 24 hr pulses of MTX was performed once a month. CEM-7OH MTX and Molt-4-7OH MTX were established and maintained as previously described [Fotoohi K, et al., Blood. 2004; 104:4194-4201].
(§2) Antifolate growth inhibition assay: Parental cells and their antifolate-resistant sublines as well as FPGS-transfected cells were first grown in antifolate-free growth medium for 5-7 cell doublings. Thereafter, cells were seeded in 96-well plates (3×10^4/well) in growth medium (100 μl/well) containing various concentrations of the different antifolates (e.g. MTX, ZD1694 and ZD9331). After 3 days of incubation at 37° C., viable cell numbers were determined using the Cell Proliferation Kit (XTT) (Biological Industries). Percent inhibition of cell growth was calculated relative to untreated controls. Results presented are means of at least three independent experiments.

Series [2] relates to CCRF-CEM WT cells. Description: Antifolate growth inhibition assay (XTT), parental cells. Format: cell-based. Particulars: Homo sapiens, 72 h, read-out: IC50 growth inhibition. As for the experimental part: as §1, §2
For series [3], the system named is CEM-MTX^R10 cells. In words: Antifolate growth inhibition assay (XTT), MTX-resistant subline. Format: cell-based. To be noted: Homo sapiens, 72 h, read-out: IC50 growth inhibition. As for the experimental part: as §1, §2
(Formazan colour is commonly taken as a measure of viable cells.)

For series [4], the target named is T1, RFC (SLC19A1) (Homo sapiens, UniProt P41440).
T1 construct: endogenous in cells; host or cells: CCRF-CEM parental cells and antifolate-resistant sublines (MTX^R5P, CEM/MTX^R10)
T1 sequence (P41440 1-591): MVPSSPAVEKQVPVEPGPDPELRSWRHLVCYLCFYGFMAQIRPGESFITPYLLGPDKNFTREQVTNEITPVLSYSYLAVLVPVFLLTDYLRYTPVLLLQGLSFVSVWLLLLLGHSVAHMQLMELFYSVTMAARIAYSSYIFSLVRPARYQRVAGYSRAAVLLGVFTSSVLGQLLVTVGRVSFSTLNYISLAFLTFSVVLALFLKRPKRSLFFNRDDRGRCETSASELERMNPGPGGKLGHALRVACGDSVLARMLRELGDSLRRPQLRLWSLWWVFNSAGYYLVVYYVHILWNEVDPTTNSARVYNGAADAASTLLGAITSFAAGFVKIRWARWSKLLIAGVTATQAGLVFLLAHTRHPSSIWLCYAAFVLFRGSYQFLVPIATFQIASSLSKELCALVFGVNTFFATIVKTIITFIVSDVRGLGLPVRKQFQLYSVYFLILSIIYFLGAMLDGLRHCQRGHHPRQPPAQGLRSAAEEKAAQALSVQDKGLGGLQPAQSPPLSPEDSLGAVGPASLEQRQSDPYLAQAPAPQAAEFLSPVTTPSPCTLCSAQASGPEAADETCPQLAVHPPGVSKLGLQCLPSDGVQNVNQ
In words: [^3H]MTX transport assay. Format: cell-based. Particulars: 2 μM [3H]MTX, 3 min, 37° C. The protocol:
[^3H]MTX transport assay: [^3H]MTX influx rates were determined as previously described [Jansen Get al., J Biol Chem. 1990; 265:18272-18277]. Briefly, cells (2×10^7) were washed with ice-cold HBS (20 mM HEPES, 140 mM NaCl, 5 mM KCl, 2 mM MgCl2, and 5 mM glucose, at pH 7.4) and incubated at 37° C. for 3 min in HBS containing 2 μM [3′,5′,7-^3H]-Methotrexate (0.555 TBq/mmol; […]; Moravek Biochemicals, Brea, Calif.). Transport controls contained a 500-fold excess (1 mM) of unlabeled MTX. Transport was stopped by the addition of 10 ml of ice-cold HBS. Then, the cell suspension was centrifuged, washed with ice-cold HBS and suspended in water for scintillation counting.

Series [5] concerns MTX^R10 cells overexpressing normal FPGS (pcDNA3/hFPGS transfectant). Description: Antifolate cytotoxicity in FPGS-transfected cells. Format: cell-based, human. To be noted: MTX^R10 cells transfected with normal FPGS, compared with parental cells. The protocol:
as §2
Expression Vectors: pcDNA3/hFPGS harboring the full-length human FPGS cDNA was provided. […]
Stable Transfections with hFPGS Expression Constructs: Exponentially growing cells (i.e. CCRF-CEM and)CEM-MTX^R10) were harvested by centrifugation and stably transfected by electroporation (1000 μF, 234V) with 10 μg of the vectors pcDNA3.1, pIRES2-EGFP, pcDNA3/hFPGS or pIRES/FPGSΔexon10. […] Stable transfectants obtained after 4 weeks of G-418 selection were analyzed for FPGS mRNA levels by Northern blots as detailed below and used for further analyses.

[6] abbreviates: CEM-MTX^R5P, 3 days incubation, XTT.
The mark [7] stands for this setting: CCRF-CEM WT, 3 days incubation, XTT.
Where [8] appears, read: CEM-MTX^R10, 3 days incubation, XTT.
[9] abbreviates: MTX^R5P cells vs parental cells.

We go through 3 compounds from US20110229892A1, “METHOD FOR PREDICTING A PATIENT'S RESPONSIVENESS TO ANTI-FOLATE THERAPY” (priority 2008, published 2011).

Molecules are shown by their SMILES. Like-named read-outs stand apart in the source and are kept apart here.

Consider `CN(Cc1cnc2nc(N)nc(N)c2n1)c1ccc(C(=O)N[C@@H](CCC(=O)O)C(=O)O)cc1` [MTX, methotrexate], for which the IC50 in series [1] (setting [6]) was determined as 23.1 ± 2 nM; in series [2] (setting [7]), 25.7 ± 2.1 nM; in series [3] (setting [8]) it was 28.2 ± 2.9 nM. Further, the “MTX Influx” value in series [4] (CCRF-CEM WT (parental reference)) is listed as 100%; in series [4] (CEM-MTX^R5P, relative to parental cells) it was 50 ± 5%; in series [4] (CEM-MTX^R5P, relative to parental cells, listed as [^3H]MTX) it was 50%; in series [4] (CEM-MTX^R10, relative to parental cells) it was 91 + 6%.

Turning to `Cc1nc2ccc(CN(C)c3ccc(C(=O)N[C@@H](CCC(=O)O)C(=O)O)s3)cc2c(=O)[nH]1` [ZD1964, raltitrexed], the concentration for half-maximal inhibition (IC50) in series [1] (setting [6]) is more than 300000 nM; in series [2] (setting [7]), 6.06 ± 0.42 nM; in series [3] (setting [8]) it was 110 ± 9.8 nM. Besides, the “resistance relative to parental CCRF-CEM cells” value in series [1] (setting [9]) was 50,000 fold. For the same compound, in series [5], the “sensitivity after ectopic overexpression of normal FPGS” value was “fully restored parental cell sensitivity”.

Take `C#CCN(Cc1cc2c(=O)[nH]c(C)nc2cc1C)c1ccc(C(=O)N[C@@H](CCc2nnn[nH]2)C(=O)O)c(F)c1` [ZD9331, plevitrexed]: the IC50 in series [1] amounted to 13.9 ± 1.7 nM; in series [2] (CCRF-CEM), 28.6 ± 2.3 nM; in series [3] it was 40.8 ± 4.1 nM. Moreover, the “increased sensitivity relative to parental cells” value in series [1] (setting [9]) turned out to be 2 fold.

As usually defined, the IC50 is the concentration that gives 50% inhibition.
